Measured values published in patent publication US9169310B2 (Zealand Pharma A/S, priority 2010, dated 2015).
Read-outs that look alike come from different tables or passages of the source. Starred links: 1 amine or outer side, 2 acyl side, 3 side chain; linkers in the order of their positions; H or OH if unused. Non-standard residues stand in square brackets, D forms with d. Residues, ends and D or L forms follow the SMILES beside them. Groups on a side chain read outwards from the residue. *: point of attachment. γGlu = O=C(O)[C@H](CCC(=O)[*:2])N[*:1]; Palmitoyl = CCCCCCCCCCCCCCCC(=O)*; Aib = CC(C)(N)C(=O)O

Experiments:
[1] = target: T1, human GLP-1R (Homo sapiens, UniProt P43220); assay: GLP-1 receptor efficacy assay (cAMP formation, FlashPlate cAMP kit); type: cell-based; details: HEK293 cells expressing human GLP-1R; cAMP formed, 15 min at 37° C.
T1 construct: expressed in transfected cells
T1 sequence (P43220 24-463): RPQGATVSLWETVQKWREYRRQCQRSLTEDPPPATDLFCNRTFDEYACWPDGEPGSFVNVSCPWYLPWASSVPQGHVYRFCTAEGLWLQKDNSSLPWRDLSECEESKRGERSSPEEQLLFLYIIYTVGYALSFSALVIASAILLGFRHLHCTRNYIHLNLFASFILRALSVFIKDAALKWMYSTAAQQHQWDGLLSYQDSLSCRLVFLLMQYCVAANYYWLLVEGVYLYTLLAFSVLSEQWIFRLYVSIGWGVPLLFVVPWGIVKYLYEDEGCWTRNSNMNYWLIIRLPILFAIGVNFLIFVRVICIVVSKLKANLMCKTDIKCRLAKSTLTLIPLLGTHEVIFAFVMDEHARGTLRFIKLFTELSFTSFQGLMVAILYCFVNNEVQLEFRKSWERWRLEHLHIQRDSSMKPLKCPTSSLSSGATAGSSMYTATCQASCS
Procedure: (§1) The 5′-end primers additionally encoded a near Kozak consensus sequence to ensure efficient translation.
(§2) 48 hr after transfection, cells were seeded for limited dilution cloning and selected with 1 mg/ml G418 in the culture medium.

[2] = target: T2, human glucagon-R (Homo sapiens, UniProt P47871); assay: Glucagon receptor efficacy assay (cAMP formation, FlashPlate cAMP kit); type: cell-based
T2 construct: expressed in transfected cells
T2 sequence (P47871 26-477): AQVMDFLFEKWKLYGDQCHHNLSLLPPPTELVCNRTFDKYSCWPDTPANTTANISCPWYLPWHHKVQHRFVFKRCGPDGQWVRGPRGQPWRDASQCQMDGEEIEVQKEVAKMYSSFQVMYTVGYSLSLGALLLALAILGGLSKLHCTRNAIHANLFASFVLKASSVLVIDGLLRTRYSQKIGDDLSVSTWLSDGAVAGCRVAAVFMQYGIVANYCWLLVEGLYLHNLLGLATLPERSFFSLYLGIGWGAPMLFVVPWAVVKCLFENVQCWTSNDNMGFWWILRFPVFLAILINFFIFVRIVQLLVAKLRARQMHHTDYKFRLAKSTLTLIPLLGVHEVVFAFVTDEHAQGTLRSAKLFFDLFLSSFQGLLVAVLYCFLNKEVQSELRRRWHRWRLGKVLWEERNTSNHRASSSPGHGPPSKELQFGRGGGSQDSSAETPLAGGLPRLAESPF
Procedure: as §1, §2

[3] = HEK293 cells expressing human glucagon-R; cAMP formed, 15 min at 37° C.; read-out: EC50 nM) GluR

Row | Structure (SMILES) | EC50 [1] [nM] | EC50 [2, 3] [nM] | EC50 ([2]; earlier determination, replaced by redetermination in Table 1, read-out: EC50 GluR, earlier determined value) [nM]
1 | CCCCCCCCCCCCCCCC(=O)N[C@@H](CCC(=O)NCCCC[C@H](NC(=O)[C@H](CO)NC(=O)[C@H](CC(=O)O)NC(=O)[C@H](CC(C)C)NC(=O)[C@H](Cc1ccc(O)cc1)NC(=O)[C@H](CCCCN)NC(=O)[C@H](CO)NC(=O)[C@H](Cc1ccc(O)cc1)NC(=O)[C@H](CC(=O)O)NC(=O)[C@H](CO)NC(=O)[C@@H](NC(=O)[C@H](Cc1ccccc1)NC(=O)[C@@H](NC(=O)CNC(=O)[C@@H](NC(=O)C(C)(C)NC(=O)[C@@H](N)Cc1c[nH]cn1)[C@@H](C)CC)[C@@H](C)O)[C@@H](C)O)C(=O)N[C@@H](C)C(=O)N[C@@H](C)C(=O)N[C@@H](Cc1c[nH]cn1)C(=O)N[C@@H](CC(=O)O)C(=O)N[C@@H](Cc1ccccc1)C(=O)N[C@H](C(=O)N[C@@H](CCC(=O)O)C(=O)N[C@@H](Cc1c[nH]c2ccccc12)C(=O)N[C@@H](CC(C)C)C(=O)N[C@@H](CC(C)C)C(=O)N[C@@H](CO)C(=O)N[C@@H](C)C(N)=O)C(C)C)C(=O)O [Compound 19] (H-H[Aib]IGTFTSDYSKYLDSK([γGlu-Palmitoyl])AAHDFVEWLLSA-NH2) | 0.16 |  | 3
2 | CCCCCCCCCCCCCCCC(=O)N[C@@H](CCC(=O)NCCCC[C@H](NC(=O)[C@H](CO)NC(=O)[C@H](CC(=O)O)NC(=O)[C@H](CC(C)C)NC(=O)[C@H](Cc1ccc(O)cc1)NC(=O)[C@H](CCCCN)NC(=O)[C@H](CO)NC(=O)[C@H](Cc1ccc(O)cc1)NC(=O)[C@H](CC(=O)O)NC(=O)[C@H](CO)NC(=O)[C@@H](NC(=O)[C@H](Cc1ccccc1)NC(=O)[C@@H](NC(=O)CNC(=O)CNC(=O)C(C)(C)NC(=O)[C@@H](N)Cc1c[nH]cn1)[C@@H](C)O)[C@@H](C)O)C(=O)N[C@@H](C)C(=O)N[C@@H](C)C(=O)N[C@@H](Cc1c[nH]cn1)C(=O)N[C@@H](CC(=O)O)C(=O)N[C@@H](Cc1ccccc1)C(=O)N[C@H](C(=O)N[C@@H](CCC(=O)O)C(=O)N[C@@H](Cc1c[nH]c2ccccc12)C(=O)N[C@@H](CC(C)C)C(=O)N[C@@H](CC(C)C)C(=O)N[C@@H](CO)C(=O)N[C@@H](C)C(N)=O)C(C)C)C(=O)O [Compound 20] (H-H[Aib]GGTFTSDYSKYLDSK([γGlu-Palmitoyl])AAHDFVEWLLSA-NH2) | 0.21 | 26 | 

Next, values leading:

Row | EC50 [1] [nM] | EC50 [2, 3] [nM] | EC50 ([2]; earlier determination, replaced by redetermination in Table 1, read-out: EC50 GluR, earlier determined value) [nM] | Structure (SMILES)
3 | 0.16 | 0.15 |  | CCCCCCCCCCCCCCCC(=O)N[C@@H](CCC(=O)NCCCC[C@H](NC(=O)[C@H](CO)NC(=O)[C@H](CC(=O)O)NC(=O)[C@H](CC(C)C)NC(=O)[C@H](Cc1ccc(O)cc1)NC(=O)[C@H](CCCCN)NC(=O)[C@H](CO)NC(=O)[C@H](Cc1ccc(O)cc1)NC(=O)[C@H](CC(=O)O)NC(=O)[C@H](CO)NC(=O)[C@@H](NC(=O)[C@H](Cc1ccccc1)NC(=O)[C@@H](NC(=O)CNC(=O)[C@H](Cc1c[nH]cn1)NC(=O)C(C)(C)NC(=O)[C@@H](N)Cc1c[nH]cn1)[C@@H](C)O)[C@@H](C)O)C(=O)N[C@@H](C)C(=O)N[C@@H](C)C(=O)N[C@@H](Cc1c[nH]cn1)C(=O)N[C@@H](CCC(=O)O)C(=O)N[C@@H](Cc1ccccc1)C(=O)N[C@H](C(=O)N[C@@H](CCC(=O)O)C(=O)N[C@@H](Cc1c[nH]c2ccccc12)C(=O)N[C@@H](CC(C)C)C(=O)N[C@@H](CC(C)C)C(=O)N[C@@H](CCC(=O)O)C(=O)N[C@@H](C)C(N)=O)C(C)C)C(=O)O [Compound 5] (H-H[Aib]HGTFTSDYSKYLDSK([γGlu-Palmitoyl])AAHEFVEWLLEA-NH2)
4 |  | 26 |  | CCCCCCCCCCCCCCCC(=O)N[C@@H](CCC(=O)NCCCC[C@H](NC(=O)[C@H](CO)NC(=O)[C@H](CC(=O)O)NC(=O)[C@H](CC(C)C)NC(=O)[C@H](Cc1ccc(O)cc1)NC(=O)[C@H](CCCCN)NC(=O)[C@H](CO)NC(=O)[C@H](Cc1ccc(O)cc1)NC(=O)[C@H](CC(=O)O)NC(=O)[C@H](CO)NC(=O)[C@@H](NC(=O)[C@H](Cc1ccccc1)NC(=O)[C@@H](NC(=O)CNC(=O)[C@H](CCC(=O)O)NC(=O)C(C)(C)NC(=O)[C@@H](N)Cc1c[nH]cn1)[C@@H](C)O)[C@@H](C)O)C(=O)N[C@@H](C)C(=O)N[C@@H](C)C(=O)N[C@@H](Cc1c[nH]cn1)C(=O)N[C@@H](CC(=O)O)C(=O)N[C@@H](Cc1ccccc1)C(=O)N[C@H](C(=O)N[C@@H](CCC(=O)O)C(=O)N[C@@H](Cc1c[nH]c2ccccc12)C(=O)N[C@@H](CC(C)C)C(=O)N[C@@H](CC(C)C)C(=O)N[C@@H](CO)C(=O)N[C@@H](C)C(N)=O)C(C)C)C(=O)O [Compound 7] (H-H[Aib]EGTFTSDYSKYLDSK([γGlu-Palmitoyl])AAHDFVEWLLSA-NH2)
5 |  | 3 |  | CCCCCCCCCCCCCCCC(=O)N[C@@H](CCC(=O)NCCCC[C@H](NC(=O)[C@H](CO)NC(=O)[C@H](CC(=O)O)NC(=O)[C@H](CC(C)C)NC(=O)[C@H](Cc1ccc(O)cc1)NC(=O)[C@H](CCCCN)NC(=O)[C@H](CO)NC(=O)[C@H](Cc1ccc(O)cc1)NC(=O)[C@H](CC(=O)O)NC(=O)[C@H](CO)NC(=O)[C@@H](NC(=O)[C@H](Cc1ccccc1)NC(=O)[C@@H](NC(=O)[C@H](C)NC(=O)[C@H](CCC(N)=O)NC(=O)C(C)(C)NC(=O)[C@@H](N)Cc1c[nH]cn1)[C@@H](C)O)[C@@H](C)O)C(=O)N[C@@H](C)C(=O)N[C@@H](C)C(=O)N[C@@H](Cc1c[nH]cn1)C(=O)N[C@@H](CC(=O)O)C(=O)N[C@@H](Cc1ccccc1)C(=O)N[C@H](C(=O)N[C@@H](CCC(=O)O)C(=O)N[C@@H](Cc1c[nH]c2ccccc12)C(=O)N[C@@H](CC(C)C)C(=O)N[C@@H](CC(C)C)C(=O)N[C@@H](CO)C(=O)N[C@@H](C)C(N)=O)C(C)C)C(=O)O [Compound 8] (H-H[Aib]QATFTSDYSKYLDSK([γGlu-Palmitoyl])AAHDFVEWLLSA-NH2)
6 |  | 3 |  | CCCCCCCCCCCCCCCC(=O)N[C@@H](CCC(=O)NCCCC[C@H](NC(=O)[C@H](CO)NC(=O)[C@H](CC(=O)O)NC(=O)[C@H](CC(C)C)NC(=O)[C@H](Cc1ccc(O)cc1)NC(=O)[C@H](CCCCN)NC(=O)[C@H](CO)NC(=O)[C@H](Cc1ccc(O)cc1)NC(=O)[C@H](CC(=O)O)NC(=O)[C@H](CO)NC(=O)[C@@H](NC(=O)[C@H](Cc1ccccc1)NC(=O)[C@@H](NC(=O)CNC(=O)[C@@H](NC(=O)C(C)(C)NC(=O)[C@@H](N)Cc1c[nH]cn1)C(C)C)[C@@H](C)O)[C@@H](C)O)C(=O)N[C@@H](C)C(=O)N[C@@H](C)C(=O)N[C@@H](Cc1c[nH]cn1)C(=O)N[C@@H](CC(=O)O)C(=O)N[C@@H](Cc1ccccc1)C(=O)N[C@H](C(=O)N[C@@H](CCC(=O)O)C(=O)N[C@@H](Cc1c[nH]c2ccccc12)C(=O)N[C@@H](CC(C)C)C(=O)N[C@@H](CC(C)C)C(=O)N[C@@H](CO)C(=O)N[C@@H](C)C(N)=O)C(C)C)C(=O)O [Compound 16] (H-H[Aib]VGTFTSDYSKYLDSK([γGlu-Palmitoyl])AAHDFVEWLLSA-NH2)
